Results reported in BindingDB's records for doi:10.1021/jm9811054 (Merck, 2000).

biological target: 5-HT1D receptor (Bos taurus); test: Binding affinity towards 5-hydroxytryptamine 1D receptor in calf striatum using [3H]5-HT as radio-ligand.

Compared with COc1ccc(NC(=O)NCCc2c[nH]c3ccc(F)cc23)cc1N1CCN(C)CC1 [1-[2-(5-Fluoro-1H-indol-3-yl)-ethyl]-3-[4-methoxy-3-(4-methyl-piperazin-1-yl)-phenyl]-urea], COc1ccc(NC(=O)N2CCN(CCCCc3c[nH]c4ccc(F)cc34)CC2)cc1N1CCN(C)CC1 [4-[4-(5-Fluoro-1H-indol-3-yl)-butyl]-piperazine-1-carboxylic acid [4-methoxy-3-(4-methyl-piperazin-1-yl)-phenyl]-amide] is 2.2-fold higher in IC50: 167 nM for the first, 367 nM for the second. The first is the more potent here.

First: COc1ccc(NC(=O)NCCN2CCC(c3c[nH]c4cc(F)ccc34)CC2)cc1OCCN(C)C [1-[3-(2-Dimethylamino-ethoxy)-4-methoxy-phenyl]-3-{2-[4-(6-fluoro-1H-indol-3-yl)-piperidin-1-yl]-ethyl}-urea]
Second: COc1ccc(NC(=O)N2CCC(c3c[nH]c4cc(F)ccc34)CC2)cc1N1CCN(C)CC1 [4-(6-Fluoro-1H-indol-3-yl)-piperidine-1-carboxylic acid [4-methoxy-3-(4-methyl-piperazin-1-yl)-phenyl]-amide]
The IC50 of the first is 2.2-fold higher: 433 nM for the first, 200 nM for the second. The second is the more potent here.

Compared with COc1ccc(NC(=O)N2CCC(c3c[nH]c4ccc(C(N)=O)cc34)CC2)cc1N1CCN(C)CC1 [3-{1-[4-Methoxy-3-(4-methyl-piperazin-1-yl)-phenylcarbamoyl]-piperidin-4-yl}-1H-indole-5-carboxylic acid amide], COc1ccc(NC(=O)N2CCC(c3c[nH]c4ccc(C#N)cc34)CC2)cc1N1CCN(C)CC1 [4-(5-Cyano-1H-indol-3-yl)-piperidine-1-carboxylic acid [4-methoxy-3-(4-methyl-piperazin-1-yl)-phenyl]-amide] is 4-fold higher in IC50: 100 nM for the first, 400 nM for the second.

COc1ccc(NC(=O)N2CCc3[nH]c4ccc(F)cc4c3C2)cc1N1CCN(C)CC1 [8-Fluoro-1,3,4,5-tetrahydro-pyrido[4,3-b]indole-2-carboxylic acid [4-methoxy-3-(4-methyl-piperazin-1-yl)-phenyl]-amide] gave an IC50 of 667 nM.
